Test results as given in US20100173990A1, “Transglutaminase Inhibitor Comprising Chlorogenic Acid And A Method For Producing Thereof” (priority 2007, published 2010).
pIC50: −log10 of the molar value.

Biological target: T1, Transglutaminase 2 (Cavia cutleri, UniProt P08587)
T1 construct: purchased Sigma-Aldrich T5398
T1 sequence (P08587 1-690): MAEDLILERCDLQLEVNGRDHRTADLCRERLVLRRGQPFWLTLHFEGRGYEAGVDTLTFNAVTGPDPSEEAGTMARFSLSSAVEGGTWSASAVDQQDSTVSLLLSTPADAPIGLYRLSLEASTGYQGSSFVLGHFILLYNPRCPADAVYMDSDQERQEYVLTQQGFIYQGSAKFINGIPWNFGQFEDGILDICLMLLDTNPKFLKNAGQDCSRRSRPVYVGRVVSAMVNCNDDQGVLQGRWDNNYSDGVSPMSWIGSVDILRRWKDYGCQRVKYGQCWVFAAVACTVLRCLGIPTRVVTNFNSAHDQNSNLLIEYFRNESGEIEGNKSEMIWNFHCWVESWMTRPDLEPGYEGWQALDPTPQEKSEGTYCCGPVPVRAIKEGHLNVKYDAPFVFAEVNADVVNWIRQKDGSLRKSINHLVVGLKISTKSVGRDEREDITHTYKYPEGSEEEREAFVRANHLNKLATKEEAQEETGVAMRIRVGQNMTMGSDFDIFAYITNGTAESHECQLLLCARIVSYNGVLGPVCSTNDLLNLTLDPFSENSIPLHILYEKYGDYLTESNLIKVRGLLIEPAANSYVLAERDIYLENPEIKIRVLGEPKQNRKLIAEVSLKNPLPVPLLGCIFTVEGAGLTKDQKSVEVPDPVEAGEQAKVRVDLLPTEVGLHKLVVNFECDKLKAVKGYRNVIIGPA
Assay: In vitro assay for inhibition of transglutaminase activity ([1,4-14C] putrescine incorporation into succinylated casein)
Format: biochemical
Conditions: for activity of transglutaminase relative to DMSO-control, Assay 1 / activity of transglutaminase relative to DMSO-control, Assay 2 / activity of transglutaminase relative to DMSO-control, Assay 3 / activity of transglutaminase relative to DMSO-control, Mean: control = 1.0000; for activity of transglutaminase relative to DMSO-control, Mean: mean of three assays
Protocol: To measure the inhibitory activity of chlorogenic acid which competes with putrescine, the transglutaminase-catalyzed reaction between [1,4,-^14C] putrescine and succinylated casein were observed.
Succinylated casein was purchased from Calbiochem (Cat. No. 573464), and 1 g of the powder was dissolved in 50 ml of a reaction buffer solution containing 5 mM DTT (0.1 M Tris-acetate (pH 8.0), 10 mM CaCl, 0.15 M NaCl, 1.0 mM EDTA). This solution was stored in a deep freezer for further use. [1,4-^14C] Putrescine dihydrochloride was purchased from GE Healthcare (Cat. No. CFA301), and the stock solution was diluted with distilled water to yield a radiological dose of 5 μCi/ml. Transglutaminase 2 was purchased from Sigma-Aldrich (Cat. No. T5398), and diluted with distilled water to yield a final concentration of 1 unit/ml. Chlorogenic acid (Sigma-Aldrich, Cat No. C3878) was dissolved in DMSO at a concentration of 10 mM to prepare its stock solution, and the stock solution was diluted with DMSO to prepare solutions having various concentrations.
450 μl of succinylated casein solution and 50 μl of [1,4-^14C] putrescine dihydrochloride solution were mixed together to prepare a substrate solution. 96 μl of the reaction buffer, 3 μl of the stock solution of chlorogenic acid, and 1 μl of the stock solution of transglutaminase were mixed together to prepare each sample, followed by incubation at 37° C. for 10 min. 500 μl of the substrate solution and 100 μl of sample solution were mixed well, and the mixture was incubated at 37° C. for 2 hrs, before termination with 4.5 ml of cold (4° C.) 7.5% TCA. The final solution was stored at 4° C. for 1 hr. The TCA-precipitates were filtered through a GF/glass fiber filter, washed with 25 ml of cold 5% TCA, and dried. Radioactivity of crosslinked protein was measured using a β-counter (Beckman Coulter), and compensated by the activity of DMSO-control group as a standard. The activity of transglutaminase was represented by the measured values.

## O=C(/C=C/c1ccc(O)c(O)c1)O[C@@H]1C[C@](O)(C(=O)O)C[C@@H](O)[C@H]1O [chlorogenic acid, 3-[[3-(3,4-dihydroxyphenyl)-1-oxo-2-propenyl]oxy]-1,4,5-trihydroxycyclohexanecarboxylic acid]
0.5 μM chlorogenic acid
  activity of transglutaminase relative to DMSO-control, Assay 1: 0.9450
  activity of transglutaminase relative to DMSO-control, Assay 2: 0.8658
  activity of transglutaminase relative to DMSO-control, Assay 3: 0.9028
  activity of transglutaminase relative to DMSO-control, Mean: 0.9045
1.0 μM chlorogenic acid
  activity of transglutaminase relative to DMSO-control, Assay 1: 0.8294
  activity of transglutaminase relative to DMSO-control, Assay 2: 0.7454
  activity of transglutaminase relative to DMSO-control, Assay 3: 0.5411
  activity of transglutaminase relative to DMSO-control, Mean: 0.7053
2.0 μM chlorogenic acid
  activity of transglutaminase relative to DMSO-control, Assay 1: 0.4526
  activity of transglutaminase relative to DMSO-control, Assay 2: 0.5111
  activity of transglutaminase relative to DMSO-control, Assay 3: 0.3081
  activity of transglutaminase relative to DMSO-control, Mean: 0.4240
3.0 μM chlorogenic acid
  activity of transglutaminase relative to DMSO-control, Assay 1: 0.2041
  activity of transglutaminase relative to DMSO-control, Assay 2: 0.1523
  activity of transglutaminase relative to DMSO-control, Assay 3: 0.1209
  activity of transglutaminase relative to DMSO-control, Mean: 0.1591
5.0 μM chlorogenic acid
  activity of transglutaminase relative to DMSO-control, Assay 1: 0.1094
  activity of transglutaminase relative to DMSO-control, Assay 2: 0.1009
  activity of transglutaminase relative to DMSO-control, Assay 3: 0.0797
  activity of transglutaminase relative to DMSO-control, Mean: 0.0966
10.0 μM chlorogenic acid
  activity of transglutaminase relative to DMSO-control, Assay 1: 0.0713
  activity of transglutaminase relative to DMSO-control, Assay 2: 0.0876
  activity of transglutaminase relative to DMSO-control, Assay 3: 0.0754
  activity of transglutaminase relative to DMSO-control, Mean: 0.0781
50.0 μM chlorogenic acid
  activity of transglutaminase relative to DMSO-control, Assay 1: 0.0711
  activity of transglutaminase relative to DMSO-control, Assay 2: 0.0808
  activity of transglutaminase relative to DMSO-control, Assay 3: 0.0703
  activity of transglutaminase relative to DMSO-control, Mean: 0.0741
Calculated by nonlinear regression from mean values
  pIC50: 5.83
Relative inhibition activities versus concentration
  inhibition of the activity of transglutaminase (FIG. 1): inhibited in a chlorogenic acid concentration-dependent manner
